For experiment [1], the target named is T1, PMCA2 (Mus musculus, UniProt Q9R0K7). The experiment is described as follows: whole-cell patch clamp, BKCa-based Ca2+ transport assay in CHO cells. Details: gene Atp2b2; PMCA2 C-terminally fused with GFP, co-expressed with NPTN-RFP in CHO cells; with NPTN.
In experiment [2] the target is T1, PMCA2. The experiment is described as follows: cryo-EM structure, E1-ATP state. The class given is binding. The arrangement: gene Atp2b2; mouse PMCA2 (NM_001036684.3) with C-terminal FLAG or His-FLAG tag, expressed in tsA201 NPTN/BSG double knockout cells; with NPTN.

Structures are written as SMILES.

T1 sequence (Q9R0K7 whole entry, the tested form may be a part): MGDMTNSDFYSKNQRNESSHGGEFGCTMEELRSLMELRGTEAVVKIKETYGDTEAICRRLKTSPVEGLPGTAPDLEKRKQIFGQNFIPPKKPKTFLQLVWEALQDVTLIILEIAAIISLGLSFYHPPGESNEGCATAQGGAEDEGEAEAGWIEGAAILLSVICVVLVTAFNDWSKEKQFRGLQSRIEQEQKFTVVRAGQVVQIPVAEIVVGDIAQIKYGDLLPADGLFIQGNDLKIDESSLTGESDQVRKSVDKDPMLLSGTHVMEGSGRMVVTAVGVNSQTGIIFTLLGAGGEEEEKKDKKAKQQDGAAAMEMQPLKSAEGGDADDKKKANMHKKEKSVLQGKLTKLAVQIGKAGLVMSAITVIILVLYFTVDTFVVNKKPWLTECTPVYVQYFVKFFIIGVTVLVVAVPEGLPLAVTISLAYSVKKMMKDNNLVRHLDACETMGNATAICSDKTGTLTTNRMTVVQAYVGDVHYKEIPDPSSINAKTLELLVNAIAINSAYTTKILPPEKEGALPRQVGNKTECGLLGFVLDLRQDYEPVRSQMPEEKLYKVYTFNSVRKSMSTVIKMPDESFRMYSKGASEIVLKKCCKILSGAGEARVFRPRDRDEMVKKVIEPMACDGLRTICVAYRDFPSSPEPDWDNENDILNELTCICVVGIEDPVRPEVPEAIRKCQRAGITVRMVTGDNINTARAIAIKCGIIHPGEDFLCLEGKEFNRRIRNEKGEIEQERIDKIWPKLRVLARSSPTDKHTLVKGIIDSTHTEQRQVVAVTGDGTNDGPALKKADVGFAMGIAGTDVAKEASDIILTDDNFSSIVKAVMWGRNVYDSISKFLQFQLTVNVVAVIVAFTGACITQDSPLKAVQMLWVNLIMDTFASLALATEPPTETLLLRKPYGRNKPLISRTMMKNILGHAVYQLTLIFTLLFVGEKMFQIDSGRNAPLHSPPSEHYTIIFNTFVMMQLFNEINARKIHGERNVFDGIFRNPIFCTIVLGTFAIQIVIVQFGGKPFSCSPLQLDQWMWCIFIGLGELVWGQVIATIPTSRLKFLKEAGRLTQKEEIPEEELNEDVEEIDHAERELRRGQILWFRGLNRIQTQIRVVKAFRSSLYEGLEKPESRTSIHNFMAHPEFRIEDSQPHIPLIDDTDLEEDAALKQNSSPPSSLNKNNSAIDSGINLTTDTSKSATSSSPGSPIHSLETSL
T1 sequence (P97300 29-397 partner): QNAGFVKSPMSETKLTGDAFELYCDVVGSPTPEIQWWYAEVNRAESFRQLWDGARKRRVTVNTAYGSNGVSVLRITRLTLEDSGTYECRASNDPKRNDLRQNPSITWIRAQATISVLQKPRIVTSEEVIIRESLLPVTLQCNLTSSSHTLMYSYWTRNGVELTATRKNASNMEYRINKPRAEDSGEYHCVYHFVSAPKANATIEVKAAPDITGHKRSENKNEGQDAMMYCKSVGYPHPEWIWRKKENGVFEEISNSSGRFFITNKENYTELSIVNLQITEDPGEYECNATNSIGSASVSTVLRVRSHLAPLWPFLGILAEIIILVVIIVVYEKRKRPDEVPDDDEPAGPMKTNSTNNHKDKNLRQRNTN

One may read the IC50 as the concentration that inhibits the measured activity by half. Higher therefore signals a need for much substance. With `C/C=C(/C)C(=O)O[C@H]1C(C)=C2[C@H]([C@@H]1OC(=O)CCCCCCC)[C@@](C)(OC(C)=O)C[C@H](OC(=O)CCC)[C@@]1(O)[C@H]2OC(=O)[C@@]1(C)O` [thapsigargin], the IC50 at PMCA2 [1] was 2.6 µM. In the case of `Nc1ncnc2c1ncn2[C@@H]1O[C@H](CO[P@](=O)(O)O[P@](=O)(O)NP(=O)(O)O)[C@@H](O)[C@H]1O` [AMPPNP], the “cryo-EM structure, E1-ATP state” value on PMCA2 [2] is given as “The bound AMPPNP molecule is shown, with the corresponding cryo-EM density in grey”.

(Values after article PMC12488499, “Molecular mechanism of ultrafast transport by plasma membrane Ca^2+-ATPases” (Nature, 2025).)
